Test results from PubChem BioAssay AID588472 (The Scripps Research Institute Molecular Screening Center, 2011).

How the values were obtained:
Test in all cases: PubChem AID 588472; call rule not given here
[1] = target: Protein-arginine deiminase type-2 (Homo sapiens) (UniProt Q9Y2J8); details: recombinant PAD1-4, colorimetric citrullination assay; PAD2
[2] = target: Protein-arginine deiminase type-3 (Homo sapiens) (UniProt Q9ULW8); details: recombinant PAD1-4, colorimetric citrullination assay; PAD3
[3] = target: Protein-arginine deiminase type-4 (Homo sapiens) (UniProt Q9UM07); details: recombinant PAD1-4, colorimetric citrullination assay; PAD4
[4] = target: Protein-arginine deiminase type-1 (Homo sapiens) (UniProt Q9ULC6); details: recombinant PAD1-4, colorimetric citrullination assay; PAD1

Measured: IC50

Chain of Protein-arginine deiminase type-1 (Homo sapiens) (Q9ULC6 whole entry, looked up): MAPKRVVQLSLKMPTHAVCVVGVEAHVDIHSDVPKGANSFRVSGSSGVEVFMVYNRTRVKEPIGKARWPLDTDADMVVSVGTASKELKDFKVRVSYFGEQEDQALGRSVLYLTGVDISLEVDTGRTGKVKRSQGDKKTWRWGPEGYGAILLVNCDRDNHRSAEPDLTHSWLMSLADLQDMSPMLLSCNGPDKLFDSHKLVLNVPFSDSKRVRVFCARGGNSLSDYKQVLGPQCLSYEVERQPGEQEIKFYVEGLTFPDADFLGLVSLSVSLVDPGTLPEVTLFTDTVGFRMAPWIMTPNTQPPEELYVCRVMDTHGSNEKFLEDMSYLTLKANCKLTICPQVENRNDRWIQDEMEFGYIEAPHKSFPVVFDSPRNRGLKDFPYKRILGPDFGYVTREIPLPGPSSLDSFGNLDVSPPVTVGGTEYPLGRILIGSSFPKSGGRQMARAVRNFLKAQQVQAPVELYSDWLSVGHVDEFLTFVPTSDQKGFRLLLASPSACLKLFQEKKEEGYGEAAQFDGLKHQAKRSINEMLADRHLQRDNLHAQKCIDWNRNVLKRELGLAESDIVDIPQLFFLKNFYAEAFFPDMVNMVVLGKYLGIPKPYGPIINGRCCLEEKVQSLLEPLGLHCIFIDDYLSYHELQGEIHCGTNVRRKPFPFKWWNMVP
Chain of Protein-arginine deiminase type-3 (Homo sapiens) (Q9ULW8 whole entry, looked up): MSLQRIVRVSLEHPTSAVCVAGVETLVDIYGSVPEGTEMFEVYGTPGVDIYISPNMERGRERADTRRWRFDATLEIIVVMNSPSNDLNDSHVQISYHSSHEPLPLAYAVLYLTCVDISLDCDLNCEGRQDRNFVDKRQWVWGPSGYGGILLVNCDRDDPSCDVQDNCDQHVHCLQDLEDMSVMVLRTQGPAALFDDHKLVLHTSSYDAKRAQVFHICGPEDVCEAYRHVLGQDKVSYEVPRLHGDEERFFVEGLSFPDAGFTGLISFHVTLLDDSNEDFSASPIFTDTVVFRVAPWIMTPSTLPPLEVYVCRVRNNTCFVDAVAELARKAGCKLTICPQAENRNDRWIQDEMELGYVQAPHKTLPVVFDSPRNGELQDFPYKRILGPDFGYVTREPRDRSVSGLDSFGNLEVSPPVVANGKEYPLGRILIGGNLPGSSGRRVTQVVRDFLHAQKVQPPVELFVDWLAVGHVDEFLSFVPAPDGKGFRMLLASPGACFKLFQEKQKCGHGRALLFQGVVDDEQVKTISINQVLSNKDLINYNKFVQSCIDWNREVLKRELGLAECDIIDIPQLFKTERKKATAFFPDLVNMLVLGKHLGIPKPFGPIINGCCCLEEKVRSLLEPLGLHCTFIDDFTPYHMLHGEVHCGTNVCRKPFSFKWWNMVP
Chain of Protein-arginine deiminase type-2 (Homo sapiens) (Q9Y2J8 whole entry, looked up): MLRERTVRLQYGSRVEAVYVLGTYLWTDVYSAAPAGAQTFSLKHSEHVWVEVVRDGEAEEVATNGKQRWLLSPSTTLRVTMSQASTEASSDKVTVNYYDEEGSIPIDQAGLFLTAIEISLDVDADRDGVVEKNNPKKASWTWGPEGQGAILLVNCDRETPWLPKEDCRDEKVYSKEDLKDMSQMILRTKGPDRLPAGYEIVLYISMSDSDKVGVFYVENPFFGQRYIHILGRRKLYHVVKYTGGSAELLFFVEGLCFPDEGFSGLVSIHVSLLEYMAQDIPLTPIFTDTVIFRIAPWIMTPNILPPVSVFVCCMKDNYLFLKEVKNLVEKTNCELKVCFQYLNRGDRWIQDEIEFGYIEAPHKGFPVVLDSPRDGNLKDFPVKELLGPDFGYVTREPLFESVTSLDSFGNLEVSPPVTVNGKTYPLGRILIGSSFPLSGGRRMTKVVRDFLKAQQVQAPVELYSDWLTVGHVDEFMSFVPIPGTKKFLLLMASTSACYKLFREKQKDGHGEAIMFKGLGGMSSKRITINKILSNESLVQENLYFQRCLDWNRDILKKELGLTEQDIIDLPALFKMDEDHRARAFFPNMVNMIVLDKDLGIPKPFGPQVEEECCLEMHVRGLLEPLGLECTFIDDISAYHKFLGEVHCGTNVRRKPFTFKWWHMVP
Chain of Protein-arginine deiminase type-4 (Homo sapiens) (Q9UM07 whole entry, looked up): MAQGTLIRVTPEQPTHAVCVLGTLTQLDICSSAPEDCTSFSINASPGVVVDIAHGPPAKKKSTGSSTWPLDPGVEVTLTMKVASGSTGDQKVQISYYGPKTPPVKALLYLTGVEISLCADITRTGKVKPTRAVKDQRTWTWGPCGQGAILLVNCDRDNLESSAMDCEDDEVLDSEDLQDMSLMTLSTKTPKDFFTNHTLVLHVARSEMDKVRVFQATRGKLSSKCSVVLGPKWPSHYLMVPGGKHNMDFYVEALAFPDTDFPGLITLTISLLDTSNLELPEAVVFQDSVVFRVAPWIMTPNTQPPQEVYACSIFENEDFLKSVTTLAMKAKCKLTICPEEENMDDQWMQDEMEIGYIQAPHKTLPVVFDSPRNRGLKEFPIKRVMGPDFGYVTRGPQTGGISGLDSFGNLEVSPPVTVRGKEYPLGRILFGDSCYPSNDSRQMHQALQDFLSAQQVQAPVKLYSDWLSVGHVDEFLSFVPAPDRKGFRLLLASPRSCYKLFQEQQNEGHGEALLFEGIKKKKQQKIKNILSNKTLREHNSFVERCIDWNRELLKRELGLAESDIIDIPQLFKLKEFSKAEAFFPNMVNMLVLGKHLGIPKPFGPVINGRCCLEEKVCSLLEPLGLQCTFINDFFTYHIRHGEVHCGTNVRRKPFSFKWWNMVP

NC1=CC(=O)c2cccnc2C1=O
active: [1] 740 nM | [2] 170 nM | [3] 1000 nM | [4] 970 nM
